pIC50, pKi: −log10 of the molar value. Values belong to the molecule of their own block, whether it stands above or below them. The source made the active and inactive calls. The calls are words filed in the database; no cut-off is given here.
What was measured:
Adenosine receptor A1 = biological target: T1, Adenosine receptor A1 (Homo sapiens, UniProt P30542); experiment: Displacement of [3H]CCPA from human recombinant adenosine A1 receptor expressed in CHO cells by liquid scintillation counting analysis; type: cell-based
T1 sequence (P30542 whole entry): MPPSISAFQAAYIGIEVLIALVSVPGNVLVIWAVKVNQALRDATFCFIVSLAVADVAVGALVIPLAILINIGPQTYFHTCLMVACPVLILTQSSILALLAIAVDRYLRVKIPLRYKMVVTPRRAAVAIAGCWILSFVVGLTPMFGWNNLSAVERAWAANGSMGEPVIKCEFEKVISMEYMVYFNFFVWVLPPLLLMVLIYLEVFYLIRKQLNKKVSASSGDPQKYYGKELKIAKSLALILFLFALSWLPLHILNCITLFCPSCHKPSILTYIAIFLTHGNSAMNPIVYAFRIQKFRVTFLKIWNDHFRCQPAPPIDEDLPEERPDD

Adenosine receptor A2a [1] = biological target: T2, Adenosine receptor A2a (Homo sapiens, UniProt P29274); experiment: Displacement of [3H]MSX-2 from human recombinant adenosine A2A receptor expressed in CHO cells by liquid scintillation counting analysis; type: cell-based
Adenosine receptor A2b = biological target: T3, Adenosine receptor A2b (Homo sapiens, UniProt P29275); experiment: Displacement of [3H]PSB-603 from human recombinant adenosine A2B receptor expressed in CHO cells by liquid scintillation counting analysis; type: cell-based
T3 sequence (P29275 whole entry): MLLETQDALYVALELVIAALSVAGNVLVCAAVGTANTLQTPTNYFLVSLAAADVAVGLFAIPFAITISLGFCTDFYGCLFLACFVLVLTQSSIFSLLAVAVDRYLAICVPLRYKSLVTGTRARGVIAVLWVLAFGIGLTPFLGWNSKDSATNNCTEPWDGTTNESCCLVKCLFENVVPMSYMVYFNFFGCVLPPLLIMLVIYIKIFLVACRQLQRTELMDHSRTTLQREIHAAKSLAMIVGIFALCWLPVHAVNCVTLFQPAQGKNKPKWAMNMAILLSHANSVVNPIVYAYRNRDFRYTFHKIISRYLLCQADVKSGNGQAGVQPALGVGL

Adenosine receptor A3 = biological target: T4, Adenosine receptor A3 (Homo sapiens, UniProt P0DMS8); experiment: Displacement of [3H]PSB-11 from human recombinant adenosine A3 receptor expressed in CHO cells by liquid scintillation counting analysis; type: cell-based
T4 sequence (P0DMS8 whole entry): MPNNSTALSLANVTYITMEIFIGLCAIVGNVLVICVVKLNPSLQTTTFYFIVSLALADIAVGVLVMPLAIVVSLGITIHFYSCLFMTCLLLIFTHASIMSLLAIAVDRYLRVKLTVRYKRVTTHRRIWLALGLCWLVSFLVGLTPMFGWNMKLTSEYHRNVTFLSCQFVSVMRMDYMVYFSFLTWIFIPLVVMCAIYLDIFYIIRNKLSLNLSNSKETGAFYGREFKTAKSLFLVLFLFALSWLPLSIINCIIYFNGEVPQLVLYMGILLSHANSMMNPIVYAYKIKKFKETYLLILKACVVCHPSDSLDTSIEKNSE

Histamine H3 receptor = Histamine H3 receptor (Homo sapiens, UniProt Q9Y5N1); experiment: Displacement of [3H] N-alpha methylhistamine from human recombinant histamine H3 receptor expressed in HEK293 cells measured after 90 mins; type: cell-based
[2] = biological target: T5, Adenosine receptor A2b (Homo sapiens) (UniProt P29275); experiment: Displacement of [3H]PSB-603 from human recombinant adenosine A2B receptor expressed in CHO cells at 1 uM by liquid scintillation counting analysis; type: cell-based
T5 sequence (whole entry): T3 sequence (P29275 whole entry)

[3] = biological target: T6, Adenosine receptor A3 (Homo sapiens) (UniProt P0DMS8); experiment: Displacement of [3H]PSB-11 from human recombinant adenosine A3 receptor expressed in CHO cells at 1 uM by liquid scintillation counting analysis; type: cell-based
T6 sequence (whole entry): T4 sequence (P0DMS8 whole entry)

[4] = biological target: T7, Adenosine receptor A1 (Homo sapiens) (UniProt P30542); experiment: Displacement of [3H]CCPA from human recombinant adenosine A1 receptor expressed in CHO cells at 1 uM by liquid scintillation counting analysis; type: cell-based
T7 sequence (whole entry): T1 sequence (P30542 whole entry)

Adenosine receptor A2a [5] = biological target: T2, Adenosine receptor A2a; experiment: Displacement of [3H]MSX-2 from human recombinant adenosine A2A receptor expressed in CHO cells at 1 uM by liquid scintillation counting analysis; type: cell-based
Adenosine receptor A2a [6] = biological target: T2, Adenosine receptor A2a; experiment: […] activity at human recombinant adenosine A2A receptor expressed in CHO cells assessed as inhibition of NECA-induced cAMP accumulation incubated for 20 mins by radioligand competition binding assay; type: functional, cell-based
Histamine H1 receptor = Histamine H1 receptor (Homo sapiens, UniProt P35367); experiment: Displacement of [3H]pyrilamine from human recombinant histamine H1 receptor expressed in CHO cells by liquid scintillation counting analysis; type: cell-based
Histamine H4 receptor = Histamine H4 receptor (Homo sapiens, UniProt Q9H3N8); experiment: Displacement of [3H]histamine from human recombinant histamine H4 receptor expressed in sf9 cells by liquid scintillation counting analysis
[7] = Displacement of [3H]SCH23390 from human recombinant dopamine D1 receptor expressed in HEK293 cells by liquid scintillation counting analysis; type: cell-based
D(1B) dopamine receptor = D(1B) dopamine receptor (Homo sapiens, UniProt P21918); experiment: Displacement of [3H]SCH23390 from human recombinant dopamine D5 receptor expressed in HEK293 cells by liquid scintillation counting analysis; type: cell-based
D(2) dopamine receptor = D(2) dopamine receptor (Homo sapiens, UniProt P14416); experiment: Displacement of [3H]spiperone from human recombinant dopamine D2S receptor expressed in CHO cells by liquid scintillation counting analysis; type: cell-based
D(3) dopamine receptor = D(3) dopamine receptor (Homo sapiens, UniProt P35462); experiment: Displacement of [3H]spiperone from human recombinant dopamine D3 receptor expressed in CHO cells by liquid scintillation counting analysis; type: cell-based
MAO-A = MAO-A (Homo sapiens, UniProt P21397); experiment: Inhibition of human recombinant MAO-A using kynuramine as substrate at 10 uM measured for 30 mins by spectrophotometric analysis; settings: probe kynuramine
[8] = biological target: Amine oxidase [flavin-containing] B (Homo sapiens, UniProt P27338); experiment: Inhibition of human recombinant MAO-B using kynuramine as substrate measured for 30 mins by spectrophotometric analysis
MAO-B = MAO-B (Homo sapiens, UniProt P27338); experiment: Inhibition of human recombinant MAO-B using kynuramine as substrate at 10 uM measured for 30 mins by spectrophotometric analysis; settings: probe kynuramine
Rattus norvegicus = experiment: Antiparkinson's activity in ip dosed L-DOPA induced dyskinesia Sprague-Dawley rat model assessed as reduction in dyskinesia by measuring abnormal involuntary movement upto 21 days; type: functional, organism-based; settings: dose 0.1-1 mg/kg, time day <=21
Homo sapiens [9] = species: Homo sapiens; experiment: Selectivity index, ratio of Ki for human recombinant adenosine A1 receptor to Ki for human recombinant histamine H3 receptor
Homo sapiens [10] = species: Homo sapiens; experiment: Selectivity index, ratio of Ki for human recombinant adenosine A2A receptor to Ki for human recombinant histamine H3 receptor
Homo sapiens [11] = species: Homo sapiens; experiment: Selectivity index, ratio of Ki for human recombinant adenosine A2B receptor to Ki for human recombinant histamine H3 receptor
Homo sapiens [12] = species: Homo sapiens; experiment: Selectivity index, ratio of Ki for human recombinant adenosine A3 receptor to Ki for human recombinant histamine H3 receptor
Homo sapiens [13] = species: Homo sapiens; experiment: Selectivity index, ratio of Ki for human recombinant dopamine D2S receptor to Ki for human recombinant histamine H3 receptor
Homo sapiens [14] = species: Homo sapiens; experiment: Selectivity index, ratio of Ki for human recombinant dopamine D3 receptor to Ki for human recombinant histamine H3 receptor
Homo sapiens [15] = species: Homo sapiens; experiment: Selectivity index, ratio of Ki for human recombinant adenosine A2A receptor to Ki for human recombinant adenosine A1 receptor
Homo sapiens [16] = species: Homo sapiens; experiment: Selectivity index, ratio of Ki for human recombinant adenosine A2B receptor to Ki for human recombinant adenosine A1 receptor
[17] = biological target: Adenosine receptors; A1 & A3 (Homo sapiens) (UniProt P30542+P0DMS8); experiment: Selectivity index, ratio of Ki for human recombinant adenosine A3 receptor to Ki for human recombinant adenosine A1 receptor; type: protein assay
Homo sapiens [18] = species: Homo sapiens; experiment: Selectivity index, ratio of Ki for human recombinant dopamine D2S receptor to Ki for human recombinant adenosine A1 receptor
Homo sapiens [19] = species: Homo sapiens; experiment: Selectivity index, ratio of Ki for human recombinant dopamine D3 receptor to Ki for human recombinant adenosine A1 receptor
Homo sapiens [20] = species: Homo sapiens; experiment: Selectivity index, ratio of Ki for human recombinant adenosine A2B receptor to Ki for human recombinant adenosine A2A receptor
Homo sapiens [21] = species: Homo sapiens; experiment: Selectivity index, ratio of Ki for human recombinant adenosine A3 receptor to Ki for human recombinant adenosine A2A receptor
Homo sapiens [22] = species: Homo sapiens; experiment: Selectivity index, ratio of Ki for human recombinant dopamine D2S receptor to Ki for human recombinant adenosine A2A receptor
Homo sapiens [23] = species: Homo sapiens; experiment: Selectivity index, ratio of Ki for human recombinant dopamine D3 receptor to Ki for human recombinant adenosine A2A receptor
Homo sapiens [24] = species: Homo sapiens; experiment: Selectivity index, ratio of Ki for human recombinant adenosine A3 receptor to Ki for human recombinant adenosine A2B receptor
Homo sapiens [25] = species: Homo sapiens; experiment: Selectivity index, ratio of Ki for human recombinant dopamine D2S receptor to Ki for human recombinant adenosine A2B receptor
Homo sapiens [26] = species: Homo sapiens; experiment: Selectivity index, ratio of Ki for human recombinant dopamine D3 receptor to Ki for human recombinant adenosine A2B receptor
Homo sapiens [27] = species: Homo sapiens; experiment: Selectivity index, ratio of Ki for human recombinant dopamine D2S receptor to Ki for human recombinant adenosine A3 receptor
Homo sapiens [28] = species: Homo sapiens; experiment: Selectivity index, ratio of Ki for human recombinant dopamine D3 receptor to Ki for human recombinant adenosine A3 receptor
Homo sapiens [29] = species: Homo sapiens; experiment: Selectivity index, ratio of Ki for human recombinant dopamine D3 receptor to Ki for human recombinant dopamine D2S receptor
SH-SY5Y = experiment: Cytotoxicity against human SH-SY5Y cells assessed as remaining cell viability at 1000 nM incubated for 24 hrs; type: functional

Sequence of Histamine H3 receptor (Q9Y5N1 whole entry): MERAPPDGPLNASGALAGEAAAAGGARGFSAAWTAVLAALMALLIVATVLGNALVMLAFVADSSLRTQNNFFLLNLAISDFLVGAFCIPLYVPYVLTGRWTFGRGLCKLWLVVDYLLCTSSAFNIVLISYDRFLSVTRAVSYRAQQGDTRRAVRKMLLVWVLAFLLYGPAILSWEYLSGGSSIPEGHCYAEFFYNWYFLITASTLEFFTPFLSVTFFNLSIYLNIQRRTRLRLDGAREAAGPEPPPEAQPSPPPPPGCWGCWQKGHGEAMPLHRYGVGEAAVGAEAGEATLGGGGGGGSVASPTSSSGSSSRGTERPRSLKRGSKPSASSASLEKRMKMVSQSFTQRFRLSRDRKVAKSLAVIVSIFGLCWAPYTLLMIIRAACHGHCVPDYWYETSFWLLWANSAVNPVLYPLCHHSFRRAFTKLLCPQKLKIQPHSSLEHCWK
T2 sequence (P29274 whole entry): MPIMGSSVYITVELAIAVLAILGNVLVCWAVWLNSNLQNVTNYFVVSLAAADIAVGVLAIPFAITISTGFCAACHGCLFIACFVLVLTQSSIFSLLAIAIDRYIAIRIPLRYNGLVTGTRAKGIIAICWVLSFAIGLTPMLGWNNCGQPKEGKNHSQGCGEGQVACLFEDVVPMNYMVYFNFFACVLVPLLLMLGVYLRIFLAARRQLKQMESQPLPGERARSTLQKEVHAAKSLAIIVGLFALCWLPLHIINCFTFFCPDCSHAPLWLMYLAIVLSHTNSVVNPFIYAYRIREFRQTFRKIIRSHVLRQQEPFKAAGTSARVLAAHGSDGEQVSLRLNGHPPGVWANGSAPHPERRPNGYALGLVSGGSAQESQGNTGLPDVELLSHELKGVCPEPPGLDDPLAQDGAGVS
Sequence of MAO-A (P21397 whole entry): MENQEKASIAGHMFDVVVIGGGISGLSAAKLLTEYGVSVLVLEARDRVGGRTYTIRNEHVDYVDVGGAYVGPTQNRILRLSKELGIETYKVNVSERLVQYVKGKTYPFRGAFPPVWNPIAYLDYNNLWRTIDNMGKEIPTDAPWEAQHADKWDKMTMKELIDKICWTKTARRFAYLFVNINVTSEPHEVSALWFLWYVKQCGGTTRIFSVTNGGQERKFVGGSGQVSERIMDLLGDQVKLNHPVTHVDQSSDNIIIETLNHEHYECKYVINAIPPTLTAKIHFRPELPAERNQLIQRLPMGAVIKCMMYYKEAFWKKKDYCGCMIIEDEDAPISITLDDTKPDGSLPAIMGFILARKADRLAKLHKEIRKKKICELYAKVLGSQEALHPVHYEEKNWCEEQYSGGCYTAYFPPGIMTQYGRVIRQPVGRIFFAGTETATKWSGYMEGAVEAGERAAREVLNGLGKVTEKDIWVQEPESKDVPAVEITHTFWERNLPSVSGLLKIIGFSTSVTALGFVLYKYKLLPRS
Sequence of Histamine H1 receptor (P35367 whole entry): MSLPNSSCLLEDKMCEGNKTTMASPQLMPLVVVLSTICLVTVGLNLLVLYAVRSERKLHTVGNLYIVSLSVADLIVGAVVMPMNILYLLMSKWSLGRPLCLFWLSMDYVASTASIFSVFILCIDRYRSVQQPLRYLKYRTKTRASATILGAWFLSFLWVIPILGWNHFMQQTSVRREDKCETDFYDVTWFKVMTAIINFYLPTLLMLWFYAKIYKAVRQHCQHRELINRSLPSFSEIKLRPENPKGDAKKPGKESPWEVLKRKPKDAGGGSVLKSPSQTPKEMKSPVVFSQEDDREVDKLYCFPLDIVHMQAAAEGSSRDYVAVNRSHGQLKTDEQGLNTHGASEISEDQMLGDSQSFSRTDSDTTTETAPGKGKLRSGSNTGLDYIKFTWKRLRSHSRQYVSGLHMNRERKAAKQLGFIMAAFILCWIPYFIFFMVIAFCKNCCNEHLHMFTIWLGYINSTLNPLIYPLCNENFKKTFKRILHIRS
Sequence of D(3) dopamine receptor (P35462 whole entry): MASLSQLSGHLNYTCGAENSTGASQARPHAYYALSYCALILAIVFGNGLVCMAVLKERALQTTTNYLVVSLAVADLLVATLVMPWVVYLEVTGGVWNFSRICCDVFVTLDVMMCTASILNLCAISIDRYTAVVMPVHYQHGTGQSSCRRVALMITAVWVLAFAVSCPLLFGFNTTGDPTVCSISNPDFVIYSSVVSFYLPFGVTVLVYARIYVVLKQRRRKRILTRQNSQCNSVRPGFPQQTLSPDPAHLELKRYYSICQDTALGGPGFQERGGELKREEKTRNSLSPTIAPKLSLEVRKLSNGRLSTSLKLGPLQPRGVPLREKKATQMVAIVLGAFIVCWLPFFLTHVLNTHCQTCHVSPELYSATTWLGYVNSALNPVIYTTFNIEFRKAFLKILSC
Sequence of MAO-B (P27338 whole entry): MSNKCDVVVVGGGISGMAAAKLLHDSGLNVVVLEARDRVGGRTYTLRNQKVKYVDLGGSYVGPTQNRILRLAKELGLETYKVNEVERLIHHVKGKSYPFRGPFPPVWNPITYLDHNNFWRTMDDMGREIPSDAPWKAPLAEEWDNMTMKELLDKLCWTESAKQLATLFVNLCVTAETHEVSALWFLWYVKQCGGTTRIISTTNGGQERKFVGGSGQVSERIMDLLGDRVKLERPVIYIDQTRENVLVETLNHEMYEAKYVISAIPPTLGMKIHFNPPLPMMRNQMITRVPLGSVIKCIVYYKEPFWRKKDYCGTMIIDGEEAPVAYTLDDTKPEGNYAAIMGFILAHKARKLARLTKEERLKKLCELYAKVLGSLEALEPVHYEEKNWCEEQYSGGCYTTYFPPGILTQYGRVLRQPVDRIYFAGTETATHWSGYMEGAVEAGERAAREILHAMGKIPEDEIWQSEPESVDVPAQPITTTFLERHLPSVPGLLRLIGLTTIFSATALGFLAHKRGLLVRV
Sequence of Amine oxidase [flavin-containing] B (P27338 whole entry): as above
Sequence of D(2) dopamine receptor (P14416 whole entry): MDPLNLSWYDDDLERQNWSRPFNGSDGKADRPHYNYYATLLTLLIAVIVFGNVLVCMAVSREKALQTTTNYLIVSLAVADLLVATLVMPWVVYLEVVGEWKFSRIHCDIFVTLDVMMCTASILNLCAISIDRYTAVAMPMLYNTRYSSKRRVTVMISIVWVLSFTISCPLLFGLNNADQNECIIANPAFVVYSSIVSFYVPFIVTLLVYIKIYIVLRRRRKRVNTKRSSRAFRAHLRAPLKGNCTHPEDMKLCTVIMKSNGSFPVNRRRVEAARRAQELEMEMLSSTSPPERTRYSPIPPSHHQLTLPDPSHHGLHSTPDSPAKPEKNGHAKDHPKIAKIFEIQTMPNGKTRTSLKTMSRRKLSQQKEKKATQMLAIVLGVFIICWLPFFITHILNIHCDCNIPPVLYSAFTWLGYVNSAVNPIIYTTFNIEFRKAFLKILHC
Sequence of D(1B) dopamine receptor (P21918 whole entry): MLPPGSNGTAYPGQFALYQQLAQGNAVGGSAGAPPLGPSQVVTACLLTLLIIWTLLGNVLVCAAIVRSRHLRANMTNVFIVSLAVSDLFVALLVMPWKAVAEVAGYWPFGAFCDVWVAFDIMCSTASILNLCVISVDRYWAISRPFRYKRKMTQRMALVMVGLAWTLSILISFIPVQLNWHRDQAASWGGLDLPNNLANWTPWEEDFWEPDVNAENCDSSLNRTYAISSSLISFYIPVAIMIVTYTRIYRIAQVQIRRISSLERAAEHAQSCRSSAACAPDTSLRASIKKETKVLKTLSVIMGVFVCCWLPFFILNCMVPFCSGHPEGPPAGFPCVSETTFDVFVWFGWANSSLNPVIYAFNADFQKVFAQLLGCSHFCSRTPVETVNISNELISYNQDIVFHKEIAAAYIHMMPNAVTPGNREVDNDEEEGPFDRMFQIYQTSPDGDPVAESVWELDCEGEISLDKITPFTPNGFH

Compound: Nc1nc(-c2ccc(OCCCN3CCCCC3)cc2)c2c(n1)-c1ccc(OCCCN3CCCCC3)cc1C2
pKi (Adenosine receptor A1): < 6.00
pKi (Adenosine receptor A2a [1]): 6.03
pKi (Adenosine receptor A2b): < 6.00
pKi (Adenosine receptor A3): < 6.00
pKi (Histamine H3 receptor): 9.22
inhibition [4]: 23%
inhibition [2]: 13%
inhibition ([3]; filed as antagonist): 50%

Compound: Nc1nc(-c2ccccc2)c2c(n1)-c1ccc(OCCCN3CCCCC3)cc1C2=O
pKi (Adenosine receptor A1): 6.44
pKi (Adenosine receptor A2a [1]): 6.85
pKi (Adenosine receptor A2b): 6.94
pKi (Adenosine receptor A3): < 6.00
pKi (Histamine H3 receptor): 7.44
inhibition [3]: 12%

Compound: Nc1nc(-c2ccccc2)c2c(n1)-c1cc(OCCCN3CCCC3)ccc1C2
pKi (Adenosine receptor A1): 7.94
pKi (Adenosine receptor A2a [1]): 8.14
pKi (Adenosine receptor A2b): 7.43
pKi (Adenosine receptor A3): 6.82
pKi (Histamine H3 receptor): 7.96
Activity (Adenosine receptor A2a [6]): inactive
pKi (Histamine H1 receptor): < 6.00
pKi (Histamine H4 receptor): < 5.00
pKi [7]: < 6.00
pKi (D(1B) dopamine receptor): < 6.00
pKi (D(2) dopamine receptor): 5.90
pKi (D(3) dopamine receptor): 6.54
inhibition at 0.5 h, 10 µM (MAO-A): 7.4%
pIC50 [8]: < 6.00
inhibition at 0.5 h, 10 µM (MAO-B): 57%
Activity (Rattus norvegicus): Dose-Dependent Effect
Ratio Ki (Homo sapiens [9]): 1
Ratio Ki (Homo sapiens [10]): 0.66
Ratio Ki (Homo sapiens [11]): 3
Ratio Ki (Homo sapiens [12]): 14
Ratio Ki (Homo sapiens [13]): 113
Ratio Ki (Homo sapiens [14]): 26
Ratio Ki (Homo sapiens [15]): 0.63
Ratio Ki (Homo sapiens [16]): 3
Ratio Ki [17]: 13
Ratio Ki (Homo sapiens [18]): 108
Ratio Ki (Homo sapiens [19]): 25
Ratio Ki (Homo sapiens [20]): 5
Ratio Ki (Homo sapiens [21]): 21
Ratio Ki (Homo sapiens [22]): 172
Ratio Ki (Homo sapiens [23]): 40
Ratio Ki (Homo sapiens [24]): 4
Ratio Ki (Homo sapiens [25]): 34
Ratio Ki (Homo sapiens [26]): 8
Ratio Ki (Homo sapiens [27]): 8
Ratio Ki (Homo sapiens [28]): 2
Ratio Ki (Homo sapiens [29]): 0.23

Compound: Nc1nc(-c2ccc(OCCCN3CCCCC3)cc2)c2c(n1)-c1ccccc1C2=O
pKi (Adenosine receptor A1): 6.88
pKi (Adenosine receptor A2a [1]): 7.45
pKi (Adenosine receptor A2b): 6.48
pKi (Adenosine receptor A3): < 6.00
pKi (Histamine H3 receptor): 9.55
inhibition [3]: 33%

Compound: O=C(c1ccc(OCCCc2c[nH]cn2)cc1)C1CC1
inhibition [4]: -6%
inhibition (Adenosine receptor A2a [5]): -1%
inhibition [2]: 8%
inhibition [3]: 3%

The next lines start with results.

pKi (Adenosine receptor A1): 5.60
pKi (Adenosine receptor A2a [1]): 6.14
pKi (Adenosine receptor A2b): < 6.00
pKi (Adenosine receptor A3): < 6.00
pKi (Histamine H3 receptor): 9.31
inhibition [2]: 28%
inhibition [3]: 24%
Compound: Nc1nc(-c2ccc(OCCCN3CCCCC3)cc2)c2c(n1)-c1ccccc1C2

pKi (Adenosine receptor A1): < 6.00
pKi (Adenosine receptor A2a [1]): < 6.00
pKi (Adenosine receptor A2b): < 6.00
pKi (Adenosine receptor A3): < 6.00
pKi (Histamine H3 receptor): 8.64
inhibition [4]: 24%
inhibition (Adenosine receptor A2a [5]): 34%
inhibition [2]: 34%
inhibition [3]: 39%
Compound: Nc1nc(-c2ccccc2)c2c(n1)-c1ccc(OCCCN3CCCCC3)cc1C2

pKi (Adenosine receptor A1): 6.08
pKi (Adenosine receptor A2a [1]): < 6.00
pKi (Adenosine receptor A2b): < 6.00
pKi (Adenosine receptor A3): < 6.00
pKi (Histamine H3 receptor): 7.96
inhibition (Adenosine receptor A2a [5]; filed as antagonist): 40%
inhibition [2]: 25%
inhibition [3]: 35%
Compound: Nc1nc(-c2ccccc2)c2c(n1)-c1ccc(OCCCN3CCCC3)cc1C2
Activity (SH-SY5Y): >75%
